# Data: the supplement of paper PMC10307832
# How the values were obtained:
# Assay in all cases: relative viability (nuclei count vs DMSO), 5 days (fraction); higher = more cells survive
# RERF-LC-KJ = tested on: RERF-LC-KJ
# Procedure, shortened: (§1)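 Cells from lung cancer lines were seeded into 1536-well plates and, one day later, dosed by pin tool. Treatments were either a single drug or a fixed dose of an anchor drug with five library-drug doses (not always all listed) in √10 steps. After 5 days, nuclei were stained in a one-step fixation (final 0.05% Triton X-100, 1% formaldehyde, 1 ug/ml Hoechst) and counted on 4× images, and relative viability is the treated-to-vehicle nuclei ratio, as the median of duplicate plates.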
# UMC-11 = tested on: UMC-11
# Procedure, shortened: as §1
# NCI-H2087 = tested on: NCI-H2087
# Procedure, shortened: as §1
# SK-MES-1 = tested on: SK-MES-1
# Procedure, shortened: as §1
# BEN = tested on: BEN
# Procedure, shortened: as §1
# LC-2-ad = tested on: LC-2-ad
# Procedure, shortened: as §1
# NCI-H1395 = tested on: NCI-H1395
# Procedure, shortened: as §1
# 201T = tested on: 201T
# Procedure, shortened: as §1
# LXF-289 = tested on: LXF-289
# Procedure, shortened: as §1
# NCI-H2170 = tested on: NCI-H2170
# Procedure, shortened: as §1
# HARA = tested on: HARA
# Procedure, shortened: as §1
# HOP-62 = tested on: HOP-62
# Procedure, shortened: as §1
# LOU-NH91 = tested on: LOU-NH91
# Procedure, shortened: as §1
# COR-L 105 = tested on: COR-L 105
# Procedure, shortened: as §1
# H3255 = tested on: H3255
# Procedure, shortened: as §1
# NCI-H1993 = tested on: NCI-H1993
# Procedure, shortened: as §1
# HCC-78 = tested on: HCC-78
# Procedure, shortened: as §1
# EMC-BAC-2 = tested on: EMC-BAC-2
# Procedure, shortened: as §1
# LU99A = tested on: LU99A
# Procedure, shortened: as §1
# NCI-H2126 = tested on: NCI-H2126
# Procedure, shortened: as §1
# SW 900 = tested on: SW 900
# Procedure, shortened: as §1
# NCI-H650 = tested on: NCI-H650
# Procedure, shortened: as §1
smiles,measurement,setting,value
Cc1csc(=NC2CCCCC2)n1/N=C/c1ccc(O)c(O)c1O [MIM1] + CC(=O)c1c(C)c2cnc(Nc3ccc(N4CCNCC4)cn3)nc2n(C2CCCC2)c1=O [Palbociclib] (partner 0.5 µM),relative viability,RERF-LC-KJ; first compound 0.2 µM,0.952
same,relative viability,RERF-LC-KJ; first compound 0.6325 µM,0.995
same,relative viability,RERF-LC-KJ; first compound 2 µM,0.686
same,relative viability,RERF-LC-KJ; first compound 6.325 µM,0.613
same,relative viability,RERF-LC-KJ; first compound 20 µM,0.227
same,relative viability,UMC-11; first compound 0.2 µM,0.368
same,relative viability,UMC-11; first compound 0.6325 µM,0.318
same,relative viability,UMC-11; first compound 2 µM,0.33
same,relative viability,UMC-11; first compound 6.325 µM,0.362
same,relative viability,UMC-11; first compound 20 µM,0.338
same,relative viability,NCI-H2087; first compound 0.2 µM,0.228
same,relative viability,NCI-H2087; first compound 0.6325 µM,0.269
same,relative viability,NCI-H2087; first compound 2 µM,0.24
same,relative viability,NCI-H2087; first compound 6.325 µM,0.226
same,relative viability,NCI-H2087; first compound 20 µM,0.206
same,relative viability,SK-MES-1; first compound 0.2 µM,0.286
same,relative viability,SK-MES-1; first compound 0.6325 µM,0.327
same,relative viability,SK-MES-1; first compound 2 µM,0.282
same,relative viability,SK-MES-1; first compound 6.325 µM,0.259
same,relative viability,SK-MES-1; first compound 20 µM,0.174
same,relative viability,BEN; first compound 0.2 µM,0.507
same,relative viability,BEN; first compound 0.6325 µM,0.466
same,relative viability,BEN; first compound 2 µM,0.438
same,relative viability,BEN; first compound 6.325 µM,0.468
same,relative viability,BEN; first compound 20 µM,0.407
same,relative viability,LC-2-ad; first compound 0.2 µM,0.463
same,relative viability,LC-2-ad; first compound 0.6325 µM,0.471
same,relative viability,LC-2-ad; first compound 2 µM,0.502
same,relative viability,LC-2-ad; first compound 6.325 µM,0.289
same,relative viability,LC-2-ad; first compound 20 µM,0.182
same,relative viability,NCI-H1395; first compound 0.2 µM,0.583
same,relative viability,NCI-H1395; first compound 0.6325 µM,0.6
same,relative viability,NCI-H1395; first compound 2 µM,0.596
same,relative viability,NCI-H1395; first compound 6.325 µM,0.579
same,relative viability,NCI-H1395; first compound 20 µM,0.406
same,relative viability,201T; first compound 0.2 µM,0.358
same,relative viability,201T; first compound 0.6325 µM,0.344
same,relative viability,201T; first compound 2 µM,0.36
same,relative viability,201T; first compound 6.325 µM,0.327
same,relative viability,201T; first compound 20 µM,0.339
same,relative viability,LXF-289; first compound 0.2 µM,0.603
same,relative viability,LXF-289; first compound 0.6325 µM,0.594
same,relative viability,LXF-289; first compound 2 µM,0.583
same,relative viability,LXF-289; first compound 6.325 µM,0.535
same,relative viability,LXF-289; first compound 20 µM,0.237
same,relative viability,NCI-H2170; first compound 0.2 µM,0.38
same,relative viability,NCI-H2170; first compound 0.6325 µM,0.398
same,relative viability,NCI-H2170; first compound 2 µM,0.373
same,relative viability,NCI-H2170; first compound 6.325 µM,0.227
same,relative viability,NCI-H2170; first compound 20 µM,0.142
same,relative viability,HARA; first compound 0.2 µM,0.253
same,relative viability,HARA; first compound 0.6325 µM,0.302
same,relative viability,HARA; first compound 2 µM,0.281
same,relative viability,HARA; first compound 6.325 µM,0.251
same,relative viability,HARA; first compound 20 µM,0.169
same,relative viability,HOP-62; first compound 0.2 µM,0.454
same,relative viability,HOP-62; first compound 0.6325 µM,0.44
same,relative viability,HOP-62; first compound 2 µM,0.404
same,relative viability,HOP-62; first compound 6.325 µM,0.431
same,relative viability,HOP-62; first compound 20 µM,0.127
same,relative viability,LOU-NH91; first compound 0.2 µM,0.524
same,relative viability,LOU-NH91; first compound 0.6325 µM,0.569
same,relative viability,LOU-NH91; first compound 2 µM,0.516
same,relative viability,LOU-NH91; first compound 6.325 µM,0.499
same,relative viability,LOU-NH91; first compound 20 µM,0.36
same,relative viability,COR-L 105; first compound 0.2 µM,0.472
same,relative viability,COR-L 105; first compound 0.6325 µM,0.435
same,relative viability,COR-L 105; first compound 2 µM,0.396
same,relative viability,COR-L 105; first compound 6.325 µM,0.396
same,relative viability,COR-L 105; first compound 20 µM,0.323
same,relative viability,H3255; first compound 0.2 µM,0.308
same,relative viability,H3255; first compound 0.6325 µM,0.326
same,relative viability,H3255; first compound 2 µM,0.31
same,relative viability,H3255; first compound 6.325 µM,0.326
same,relative viability,H3255; first compound 20 µM,0.243
same,relative viability,NCI-H1993; first compound 0.2 µM,0.624
same,relative viability,NCI-H1993; first compound 0.6325 µM,0.706
same,relative viability,NCI-H1993; first compound 2 µM,0.659
same,relative viability,NCI-H1993; first compound 6.325 µM,0.514
same,relative viability,NCI-H1993; first compound 20 µM,0.349
same,relative viability,HCC-78; first compound 0.2 µM,0.463
same,relative viability,HCC-78; first compound 2 µM,0.494
same,relative viability,HCC-78; first compound 6.325 µM,0.377
same,relative viability,HCC-78; first compound 20 µM,0.402
same,relative viability,EMC-BAC-2; first compound 0.2 µM,0.543
same,relative viability,EMC-BAC-2; first compound 0.6325 µM,0.542
same,relative viability,EMC-BAC-2; first compound 2 µM,0.476
same,relative viability,EMC-BAC-2; first compound 6.325 µM,0.492
same,relative viability,EMC-BAC-2; first compound 20 µM,0.244
same,relative viability,LU99A; first compound 0.2 µM,0.404
same,relative viability,LU99A; first compound 0.6325 µM,0.405
same,relative viability,LU99A; first compound 2 µM,0.38
same,relative viability,LU99A; first compound 6.325 µM,0.355
same,relative viability,LU99A; first compound 20 µM,0.159
same,relative viability,NCI-H2126; first compound 0.2 µM,0.336
same,relative viability,NCI-H2126; first compound 0.6325 µM,0.388
same,relative viability,NCI-H2126; first compound 2 µM,0.348
same,relative viability,NCI-H2126; first compound 6.325 µM,0.34
same,relative viability,NCI-H2126; first compound 20 µM,0.329
same,relative viability,SW 900; first compound 0.2 µM,0.632
same,relative viability,SW 900; first compound 0.6325 µM,0.581
same,relative viability,SW 900; first compound 2 µM,0.507
same,relative viability,SW 900; first compound 6.325 µM,0.211
same,relative viability,SW 900; first compound 20 µM,0.171
same,relative viability,NCI-H650; first compound 0.2 µM,0.372
same,relative viability,NCI-H650; first compound 0.6325 µM,0.359
same,relative viability,NCI-H650; first compound 2 µM,0.317
same,relative viability,NCI-H650; first compound 6.325 µM,0.366
same,relative viability,NCI-H650; first compound 20 µM,0.159
